Test results reported in patent publication US9856230B2 (University of Sunderland, priority 2012, dated 2018).

Tests used:
[1] = molecular target: T1, Trx system (thioredoxin/thioredoxin reductase) (Homo sapiens, UniProt Q16881); experiment: Thioredoxin/thioredoxin reductase insulin reduction assay; format: biochemical
T1 sequence (Q16881 151-649 limits assumed): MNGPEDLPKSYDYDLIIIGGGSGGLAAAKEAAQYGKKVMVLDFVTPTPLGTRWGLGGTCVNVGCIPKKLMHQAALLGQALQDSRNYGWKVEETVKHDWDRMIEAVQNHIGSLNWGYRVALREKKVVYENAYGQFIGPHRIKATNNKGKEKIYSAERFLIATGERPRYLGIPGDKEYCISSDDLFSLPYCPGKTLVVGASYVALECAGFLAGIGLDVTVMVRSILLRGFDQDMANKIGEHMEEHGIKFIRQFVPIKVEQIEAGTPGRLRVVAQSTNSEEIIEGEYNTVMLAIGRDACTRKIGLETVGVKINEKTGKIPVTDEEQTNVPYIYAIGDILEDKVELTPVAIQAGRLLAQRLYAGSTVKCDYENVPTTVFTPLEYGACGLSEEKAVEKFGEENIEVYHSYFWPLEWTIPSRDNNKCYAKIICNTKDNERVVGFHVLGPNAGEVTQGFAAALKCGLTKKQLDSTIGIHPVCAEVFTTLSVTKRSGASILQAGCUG
Procedure: Thioredoxin/thioredoxin reductase inhibition was measured using the insulin reduction assay (Stevens, M. F. G., Pallis, M., Bradshaw, T. D., Westwell, A. D., Grundy, M., Russell, N, “Induction of apoptosis without redox catastrophe by thioredoxin-inhibitory compounds”, Biochem. Pharmacol. (2003) 66, 1695-1705). […] The first part of the assay involves TrxR reducing oxidized Trx via NADPH. The reduced Trx then reduces disulfide bonds in the insulin, leaving exposed thiol groups, as summarized by the Trx reaction scheme.
The addition of dithionitrobenzoic acid (DTNB) to the free thiol groups of the insulin cleaves the disulfide bond in the DTNB which gives rise to a yellow colour (DTNB reaction scheme). The yellow colour is observed under basic conditions due to the conjugation of electrons between the thiolate anion and the nitro group of thionitrobenzoic acid (TNB). The level of thioredoxin/thioredoxin reductase inhibitory activity is […] proportional to the intensity of the yellow colour.
Addition of DTNB to reduced insulin produces thionitrobenzoic acid (TNB) and a mixed insulin disulfide. DTNB has very little absorbance, but under mild basic conditions TNB forms an anion that gives an intense yellow colour at 412 nm.
Synthesized compounds were tested for thioredoxin/thioredoxin reductase activity using the thioredoxin/thioredoxin reductase insulin assay described above under the heading “Assays”. The compounds were also tested for antiproliferative activity using the MTT assay described above under the heading “Assays”. Theoretical C log P values for the compounds were calculated using ChemDraw. The C log P of a compound is the logarithm of the compound's partition coefficient between n-octanol and water log(coctanol/cwater) and represents a measure of the compound's hydrophilicity and hydrophobicity. […]

[2] = tested on: HPV-16 immortalized keratinocyte cell line (CCD-1106 KERTr); experiment: cells; format: cell-based; conditions: Homo sapiens; CCD-1106 KERTr keratinocytes; read-out: MTT GI50;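 further: growth inhibition read as spectrophotometric formazan colour from mitochondrial dehydrogenase cleavage of MTT, proportional to viable cell number, modelling psoriatic hyperproliferation, lower values mean stronger antiproliferative activity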
Description: The assay is based on the ability of a mitochondrial dehydrogenase enzyme to cleave the tetrazolium rings of the yellow MTT to form dark blue formazan crystals (MTT reaction scheme). These crystals are mostly impermeable to cell membranes and, consequently, they accumulate in healthy viable cells. The addition of detergent solubilizes the cells, which results in the liberation of purple formazan crystals. The number of viable cells is directly proportional to the level of purple formazan produced. This colour change can be measured by a spectrophotometer enabling quantification of changes in cellular proliferation. Compound activity measured by the MTT assay (or other proliferation related assay) may be given as a GI50 value.
A human papilloma virus-16 (HPV-16) immortalized keratinocyte cell line (CCD-1106 KERTr) was used in the MTT cell viability assay.
Antiproliferative activity is indicated by the MTT GI50 (μM), where a lower value indicates higher activity.

human T-cells [3] = experiment: CFSE proliferation assay; format: cell-based; conditions: 2000 ng per mL
Description: Carboxyfluorescein diacetate succinimidyl ester (56a) (CFSE) is a cell permeable compound which readily enters the cell, upon which, the ester group is cleaved by esterases to produce a fluorescent compound (known as carboxyfluorescein succinimidyl ester (56b)) that is less cell permeable (see CFSE reaction scheme). As cells divide, the carboxyfluorescein succinimidyl ester (56b) is split equally between the daughter cells, which results in reduced carboxyfluorescein succinimidyl ester (56b) signal detection with each subsequent cell division (FIG. 2). The attenuation of the signal gives an indication of the proliferative ability of the cells.
For a compound to show good antiproliferative properties in the CFSE assay, the majority of the cells should remain in the parent state (as per division 0 in FIG. 2). […] As cell division occurs, the carboxyfluorescein succinimidyl ester (56b) is split equally between daughter cells, which results in attenuated signal detection.
CFSE labeled T-cells were treated with compound (33f) or control (no compound added). In the control experiment the majority of cells reached the fifth division (proliferation index of 5.62). […] The PI is the sum of the cells in all generations divided by the calculated number of the original parent cells.

human T-cells [4] = tested on: human T-cells
Description: (§1) To determine if the analogues were causing apoptosis or necrosis, an Annexin V-Pe assay was used. […] The annexin V is attached to a fluorescent probe that is used for detection by flow cytometry. […] The assay is also used in conjugation with 7-aminoactinomycin D (7-AAD). […] As the plasma membrane becomes increasingly permeable, 7-AAD can move readily across the cell membrane and bind to cellular DNA, thereby providing a way of identifying cells that have lost their membrane integrity; however, when the cell is viable or undergoing early stages of apoptosis, it is impermeable to 7-AAD.

in vitro = conditions: human, Viable Cells (%)
Description: as §1

human T-cells [5] = experiment: Annexin V-Pe assay (apoptosis/necrosis)
Description: as §1

## Cc1ccc(S(=O)(=O)Nc2ccc(NC(=O)c3ccco3)cc2NS(=O)(=O)c2ccc(C)cc2)cc1 [Compound (33f), N-(3,4-bis-(toluene-4-sulfonylamino)phenyl)-2-furamide]
[1]; compound at 500 μM, read-out: Inhib. (%) Trx Syst. at 500 μM
  inhibition at 500 µM: 93.7%
[1]; insulin reduction assay, read-out: Trx System IC50
  IC50: 37 µM
[2]
  GI50: 10.8 µM
Human T-cells [3]; control: majority reached the fifth division
  division state of CFSE labeled T-cells: the majority of cells remained in the parent state
Human T-cells [3]; CFSE labeled T-cells, control 5.62
  proliferation index (PI): 1.36
Human T-cells [4]
  Viable Cells (%): 46%
In vitro
  viability: 37%
Human T-cells [5]; annexin V positive, 7-AAD negative, control 29
  Early Apoptotic Cells (%): 31%
Human T-cells [5]; stain with both reagents, control 15
  Late Apoptotic/Necrotic Cells (%): 13%
